Results from publication PMC1838524 (The Journal of biological chemistry, 2006).

Biological target: T1, Vam7p PX domain (Saccharomyces cerevisiae, UniProt P32912)
T1 sequence (P32912 2-122): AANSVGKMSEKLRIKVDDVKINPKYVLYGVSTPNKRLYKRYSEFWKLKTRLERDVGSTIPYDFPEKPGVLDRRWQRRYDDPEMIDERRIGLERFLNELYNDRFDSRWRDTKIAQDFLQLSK
Assay: 1H-15N HSQC NMR titration
Assay type: binding

**Q.** Which “1H-15N HSQC NMR titration (chemical shift perturbation)” value does the source give for `CCCCCC(=O)OC[C@H](COP(=O)(O)OC[C@H](N)C(=O)O)OC(=O)CCCCC` [C6-PtdSer, 1,2-dicaproyl-sn-glycero-3-[phospho-L-serine]] here?
**A.** The value was “NMR titration of soluble dicaproyl (C6)-PtdSer into the PX domain”.
